According to patent publication US6440659B1, “Inhibitors of retroviral protease as inducers of reversible insulin resistance in vitro and in vivo” (Washington University, priority 2000, dated 2002):
Values belong to the compound of their own block, whether it stands above or below them.

How the values were obtained:
3T3-L1 adipocytes = assay: [3H]-2-deoxyglucose uptake in 3T3-L1 adipocytes, basal and insulin-stimulated; format: cell-based; conditions: for effect on insulin-stimulated glucose uptake relative to indinavir: 50 μM (FIG. 1B); for effect on basal glucose uptake: basal conditions
Protocol: FIG. 1A. […] Results from three experiments were normalized to the value obtained from insulin-stimulated control cells and are shown as the mean±S.E. (n=6). FIG. 1B. […] Results were normalized to the value obtained from insulin-stimulated control cells and are shown as the mean±S.E. (n=3). 3T3-L1 fibroblasts obtained from the American Type Culture Collection were grown to confluence and 48 h later subjected to the differentiation protocol described previously (Tordjman et al. 1989). Mature 3T3-L1 adipocytes were maintained in DMEM supplemented with 10% fetal bovine serum and used 10 to 15 d post-differentiation. 3T3-L1 adipocytes grown in 3.5 cm dishes were serum-starved for at least 3 hours and then washed three times with Krebs-Ringer phosphate buffer. […] Stock solutions of indinavir and amprenavir were made in water. Ritonavir was dissolved in ethanol.

Glut4 [1] = target: T1, Glut4 (Rattus norvegicus, UniProt P19357); assay: [3H]-2-deoxyglucose uptake in Xenopus oocytes expressing Glut4; format: cell-based; conditions: for inhibition at 50 µM: 50 μM (FIG. 3B)
T1 construct: expressed in transfected cells; host or cells: Xenopus laevis oocytes, microinjected with in vitro transcribed mRNA
T1 sequence (P19357 1-509): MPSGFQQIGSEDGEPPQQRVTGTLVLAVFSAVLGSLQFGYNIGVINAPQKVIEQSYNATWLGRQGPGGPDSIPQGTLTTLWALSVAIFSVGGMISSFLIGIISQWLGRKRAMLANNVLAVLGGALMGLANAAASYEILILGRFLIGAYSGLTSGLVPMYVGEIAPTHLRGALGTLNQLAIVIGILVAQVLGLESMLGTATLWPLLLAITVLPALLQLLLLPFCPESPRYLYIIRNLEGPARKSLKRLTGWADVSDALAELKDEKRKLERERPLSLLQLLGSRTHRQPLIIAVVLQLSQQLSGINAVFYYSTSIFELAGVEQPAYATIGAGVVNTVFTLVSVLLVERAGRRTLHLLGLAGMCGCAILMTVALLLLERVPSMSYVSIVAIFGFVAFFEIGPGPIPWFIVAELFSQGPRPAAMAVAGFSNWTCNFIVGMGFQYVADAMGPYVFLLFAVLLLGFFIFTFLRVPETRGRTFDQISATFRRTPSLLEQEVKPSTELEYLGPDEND
Protocol: (§1) FIG. 3A. Xenopus oocytes heterologously expressing either Glut1 or Glut4 isoforms were used for [^3H]-2-deoxyglucose uptake measurement in Barth's Saline at 22° C. for 30 min. […] Plotted are the mean uptake from 15-20 oocytes±S.E. [* indicates p<0.01 compared with control (ANOVA with Fischer's PLSD posthoc analysis).]
(§2) FIG. 3B. Glucose uptake in X. laevis oocytes as described above. […] The data are normalized to the uptake from the control oocytes which were not exposed to protease inhibitor. [* indicates p<0.0001 compared with control (ANOVA with Fischer's PLSD posthoc analysis).]
(§3) Xenopus laevis oocytes were prepared and injected as described previously (Keller et al., 1989) with 50 ng of either Glut1 or Glut4 mRNA synthesized in vitro (Megascript RNA synthesis kit, Ambion). After a three day incubation in Barth=s saline containing albumin at 18° C., groups of 15-20 oocytes were washed and [^3H]-2-deoxyglucose (50 μM) uptake measurements were performed in Barth's saline at 22° C. for 30 minutes.

[2] = system: insulin receptor (IR), IRS-1 and Akt phosphorylation; assay: Immunoblot of insulin signaling (IR, IRS-1, Akt phosphorylation) in 3T3-L1 adipocytes; format: cell-based; conditions: 100 μM for 4 h, 1 μM insulin 20 min
Protocol: Cells were further incubated for 20 min with or without 1 μM insulin, and subcellular fractions were subsequently isolate. Plasma membrane (PM), low density microsomal (LDM), and cytosolic (CYT) fractions were subjected to immunoblot analysis using anti-phosphotyrosine antibodies.
Whole cell lysates from 3T3-L1 adipocytes from samples treated as described above were subjected to immunoblot analysis using anti-phospo Akt antibodies, which recognize Akt phosphorylated on threonine 308 and serine 473.

Glut1 [3] = target: T2, Glut1 (Homo sapiens, UniProt P11166); assay: [3H]-2-deoxyglucose uptake in Xenopus oocytes expressing Glut1; format: cell-based; conditions: 22° C., 30 min
T2 construct: expressed in transfected cells; host or cells: Xenopus laevis oocytes, microinjected with in vitro transcribed mRNA
T2 sequence (P11166 1-492): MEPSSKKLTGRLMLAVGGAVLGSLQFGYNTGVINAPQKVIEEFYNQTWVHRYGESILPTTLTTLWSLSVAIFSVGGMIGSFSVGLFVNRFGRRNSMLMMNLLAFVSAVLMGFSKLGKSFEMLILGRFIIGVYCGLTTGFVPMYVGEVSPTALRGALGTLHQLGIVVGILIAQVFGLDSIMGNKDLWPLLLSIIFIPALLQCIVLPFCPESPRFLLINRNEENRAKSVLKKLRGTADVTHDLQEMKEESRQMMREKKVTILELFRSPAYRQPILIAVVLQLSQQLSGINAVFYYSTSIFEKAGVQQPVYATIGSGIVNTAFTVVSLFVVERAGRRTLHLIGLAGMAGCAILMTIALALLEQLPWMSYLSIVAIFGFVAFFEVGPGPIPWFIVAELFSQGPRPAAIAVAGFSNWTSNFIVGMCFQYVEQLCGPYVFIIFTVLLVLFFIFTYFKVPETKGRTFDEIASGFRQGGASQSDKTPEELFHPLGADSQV
Protocol: as §1, §2, §3

[4] = Glucose tolerance after acute indinavir administration in rats; format: in vivo, male Wistar rats
Text: (§4) Male Wistar rats (Charles River Corp) weighing between 250-400 g were used for all experiments described below. Glucose measurements were made using a Glucometer Elite Glucometer (Bayer Corporation, Diagnostics Division, Tarrytown, N.Y.). […] Jugular vein and carotid artery catheters were fabricated using microrenathane tubing (Braintree Scientific) for venous catheters and PE50 tubing (Becton Dickenson) for arterial catheters. Catheters were inserted surgically under methohexital (Jones Pharma Inc, St. Louis, Mo.) anesthesia. Humulin R insulin (Eli Lilly, Indianapolis, Ind.) was used where indicated.

[5] = Euglycemic hyperinsulinemic clamp (peripheral insulin sensitivity) in rats; format: in vivo, male Wistar rats; conditions: for reduction in peripheral insulin sensitivity (average GIR) compared with controls: infusion started 30 min before clamp, p<0.05
Protocol: Jugular vein and carotid artery catheters were inserted, at least 4 days prior to each experiment, into 200-400 gm male Wistar rats under methohexital anesthesia. Following an overnight fast, rats were infused with insulin (40 mU/kg/min) and 50% dextrose through the venous catheter. Blood was sampled every 5-10 minutes through the arterial catheter and serum glucose concentrations were determined. The glucose infusion rate (GIR) space was adjusted to maintain glucose levels of 100-110 mg/dl.
Male Wistar rats weighing 200-300 gm were catheterized as described in FIG. 5. […] After 30 minutes, insulin (40 mU/kg/min) and 50% dextrose were added to the intravenous infusion. Blood was sampled through the arterial line every 5 min and the dextrose infusion rate was adjusted to maintain plasma glucose levels between 105-115 mg/dL. GIR represents the mean glucose infusion rate during the final 30 minutes of each 2 hour clamp experiment. Results represent the mean±SEM from 3-5 rats per group. [* indicates […]]
as §4
Peripheral insulin sensitivity in rats was assessed by the euglycemic hyperinsulinemic clamp technique. Venous and arterial catheters were surgically inserted into the animals under anesthesia. At least 4 d prior to the initiation of experimental treatments catheters were inserted into both jugular vein and carotid artery locations. Following a 12 hour fast, animals were infused with insulin (40 mU/kg/min) and 50% dextrose in water through the venous catheter. Blood was sampled every 5-10 min through the arterial catheter for serum glucose determinations. The rate of glucose infusion (Glucose Infusion Rate, GIR) was adjusted as necessary to maintain serum glucose at 100-110 mg/dl (FIGS. 5A, 5B, 5C).
Insulin sensitivity was assessed by the average glucose infusion rate required to maintain euglycemia after equilibrium had been established.

Glut1 [6] = assay: Immunoblot of Glut1 content in PM and LDM fractions of 3T3-L1 adipocytes (translocation); conditions: indinavir-treated cells, 100 μM for 4 h
Glut4 [7] = assay: Immunoblot of Glut4 content in PM and LDM fractions of 3T3-L1 adipocytes (translocation); conditions: indinavir-treated cells, 100 μM for 4 h

inhibition at 50 µM (Glut4 [1]): 54%
Compound: CC(C)CN(C[C@@H](O)[C@H](Cc1ccccc1)NC(=O)O[C@H]1CCOC1)S(=O)(=O)c1ccc(N)cc1 [amprenavir]
effect on insulin-stimulated glucose uptake relative to indinavir (3T3-L1 adipocytes): comparable to that of indinavir

IR autophosphorylation and tyrosine phosphorylation of IRS-1 [2]: occurred normally
effect on Glut1 activity in Xenopus oocytes (Glut1 [3]): no effect
inhibition at 100 µM (Glut4 [1]; 100 μM (maximum dose tested)): 45%
Compound: CC(C)(C)NC(=O)[C@@H]1CN(Cc2cccnc2)CCN1C[C@@H](O)C[C@@H](Cc1ccccc1)C(=O)N[C@H]1c2ccccc2C[C@H]1O [indinavir]
inhibition at 10 µM (3T3-L1 adipocytes; Mus musculus, 3T3-L1, 10 μM, added 6 min prior to assay, 1 μM insulin, p<0.0001, read-out: inhibition of insulin-stimulated glucose uptake): 26%
inhibition at 100 µM (3T3-L1 adipocytes; Mus musculus, 3T3-L1, 100 μM, added 6 min prior to assay, 1 μM insulin for 20 min, read-out: inhibition of insulin-stimulated glucose uptake): 63%
effect on basal glucose uptake (3T3-L1 adipocytes; 20 μM): modest increase
effect on basal glucose uptake (3T3-L1 adipocytes; 10-100 μM): largely unaffected
extent of inhibition of transport activity when added before or after 20 min of insulin stimulation (3T3-L1 adipocytes; data not shown): did not change
time to restoration of normal insulin-responsive glucose uptake after removal of drug (3T3-L1 adipocytes; data not shown): ≤ 30 min
effect on insulin-stimulated phosphorylation of Akt on threonine 308 or serine 473 [2]: no effect
blood glucose concentration at t=30 min ([4]; 10 mg/kg i.p. together with dextrose 2 g/kg i.p., control 195±15, p<0.05): 241 ± 11 mg/dL
peak plasma glucose concentration ([4]; 15 mg/kg i.v. 5 min prior to glucose 2 gm/kg i.p., control 311±30): 407 ± 25 mg/dL
reduction in peripheral insulin sensitivity (average GIR) compared with controls ([5]; 0.3 mg/kg/min): 15%
reduction in peripheral insulin sensitivity (average GIR) compared with controls ([5]; 0.5 mg/kg/min): 40%
time to restoration of insulin sensitivity to baseline after stopping infusion ([5]; after stopping indinavir infusion): ≤ 4 h
decrease in GIR required to maintain euglycemia ([5]; i.v. infusion 0.3 mg/kg/min): 20%
decrease in GIR required to maintain euglycemia ([5]; i.v. infusion 0.5 mg/kg/min, within 90 minutes after start): 50%
increase with insulin of Glut1 content in plasma membrane (PM) fraction (Glut1 [6]): 63%
increase with insulin of Glut4 content in plasma membrane (PM) fraction (Glut4 [7]): 38%

inhibition at 50 µM (Glut4 [1]): 42%
Compound: CC(C)c1nc(CN(C)C(=O)N[C@H](C(=O)N[C@@H](Cc2ccccc2)C[C@H](O)[C@H](Cc2ccccc2)NC(=O)OCc2cncs2)C(C)C)cs1 [ritonavir]
effect on insulin-stimulated glucose uptake relative to indinavir (3T3-L1 adipocytes): comparable to that of indinavir
